Consider twelve compounds from patent publication US20110053916A1 (Vertex Pharmaceuticals Incorporated, priority 2009, published 2011).

Assay [1] has as its target T1, PknB (Mycobacterium tuberculosis, UniProt P9WI81).
T1 construct: made in house
The assay can be described thus: biochemical. The arrangement: species or system M. tuberculosis. Particulars: 3 nM PknB, 6 uM GarA, 3 μM ATP, 30 min, competitive tight-binding fit, several symbols in a cell = repeat determinations; for Ki: read-out: Ki Values.

The test system of assay [2] is Mycobacterium tuberculosis H37Ra. The assay can be described thus: Mycobacterium tuberculosis growth inhibition assay (microtiter dilution, resazurin reduction). Format: cell-based. The conditions noted are these: 7H9 broth, 9 days + 24 h resazurin, lowest concentration inhibiting resazurin reduction by >70%, several symbols in a cell = repeat determinations. How it is done:
Compounds were screened for their ability to inhibit the growth of Mycobacterium tuberculosis H37Ra using a standard microtiter dilution method with reduction of the dye resazurin as an indicator of growth. The growth assay was carried out in standard Mycobacterium liquid growth medium, 7H9Broth (BD Biosciences, Franklin Lakes, N.J.) supplemented with 10% ADC enrichment (BD Biosciences, Franklin Lakes, N.J.). The medium was inoculate with ˜1×10^6 cells/milliliter of Mycobacterium tuberculosis H37Ra grown on a the surface of a growth medium solid medium (7H11 agar [BD Biosciences, Franklin Lakes, N.J.] supplemented with 10% OADC enrichment [BD Biosciences, Franklin Lakes, N.J.]).
Two-fold serial dilutions (either 7 or 11-step series) of test compounds in DMSO were dispensed into 96-well assay plates (sterile, black sided, clear bottom wells) in a volume of 1 microliter. One microliter of DMSO was dispensed into a control well at the end of each series. One-hundred microliters of the bacterial cell suspension in growth medium was dispensed into each test well containing a DSMO solution of compound. The assay plates were covered with a fitted lid and incubated at 37° C. in a humidified chamber for 9 days. On the ninth day 30 microliters of a 0.01% solution of resazurin (Sigma Chemical Co., St. Louis, Mo.) in distilled water was added to each well and the baseline fluorescence of resazurin was determined by measuring well fluorescence at an excitation wavelength of 492 nm and an emission wavelength of 595 nm on a Spectrafluor Plus (Tecan, Durham, N.C.) instrument. The assay plates were returned to the incubation chamber for 24 hours. After 24 hours, the fluorescence of the wells (resulting from the reduction of resazurin dye) was measured at an excitation wavelength of 492 nm and an emission wavelength of 595 nm on the Spectrafluor Plus instrument. The minimum inhibitory concentration (MIC) was called as the lowest concentration of compound that inhibited the reduction of resazurin by >70%, as compared to the DMSO (untreated) control wells. MIC values are represented as the following values: • A* <1.6 μM • A 1.6 μM<12.5 μM • B** 12.5 μM-25.0 μM • B* 25.0 μM-50.0 μM • B 50.0 μM-100.0 μM • C >100.0 μM

T1 sequence (P9WI81 whole entry): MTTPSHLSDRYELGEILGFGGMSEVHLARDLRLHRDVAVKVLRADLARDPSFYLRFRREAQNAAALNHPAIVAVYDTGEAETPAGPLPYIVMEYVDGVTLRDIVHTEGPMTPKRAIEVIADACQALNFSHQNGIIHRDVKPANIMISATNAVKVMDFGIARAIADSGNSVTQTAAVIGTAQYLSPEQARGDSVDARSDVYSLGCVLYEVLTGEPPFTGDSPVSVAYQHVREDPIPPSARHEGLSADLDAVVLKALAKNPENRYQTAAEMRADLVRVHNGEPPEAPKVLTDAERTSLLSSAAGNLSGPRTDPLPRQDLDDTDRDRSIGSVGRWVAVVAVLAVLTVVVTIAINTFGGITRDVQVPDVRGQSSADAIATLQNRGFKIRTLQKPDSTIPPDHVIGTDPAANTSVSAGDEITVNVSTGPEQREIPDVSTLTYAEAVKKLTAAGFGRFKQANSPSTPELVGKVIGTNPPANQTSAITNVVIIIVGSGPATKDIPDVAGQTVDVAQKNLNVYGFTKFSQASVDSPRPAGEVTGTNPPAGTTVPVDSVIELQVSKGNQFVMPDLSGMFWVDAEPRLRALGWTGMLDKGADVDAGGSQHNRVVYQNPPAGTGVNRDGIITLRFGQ

In the case of `CC(C)(C)OC(=O)NCc1ccc(-c2ncc(Cl)c(Nc3cc(C4CC4)n[nH]3)n2)s1` [Compound 261, tert-butyl [[5-[5-chloro-4-[(5-cyclopropyl-2H-pyrazol-3-yl)amino]-pyrimidin-2-yl]-2-thienyl]methylamino]formate], in assay [1], the Ki was 100 to 500 nM. Besides, the MIC values entry in assay [2] was “B++”.

Consider `C#Cc1cnc(-c2ccc(C)c(C(N)=O)c2)nc1Nc1cc(C2CC2)[nH]n1` [Compound 93, 5-(4-(5-Cyclopropyl-1H-pyrazol-3-ylamino)-5-ethynylpyrimidin-2-yl)-2-methyl benzamide], for which the inhibition constant Ki in assay [1] lay in the range of 10 to 50 nM. In addition, in assay [2], the MIC values result was “B, C”.

With `O=S(=O)(NC1CC1)c1ccc(Nc2nccc(Nc3cc(C4CC4)n[nH]3)n2)cc1` [Compound 90, N-cyclopropyl-4-[[4-[(5-cyclopropyl-2H-pyrazol-3-yl)amino]pyrimidin-2-yl]amino]-benzenesulfonamide], the inhibition constant Ki in assay [1] is 10 to 50 nM. The MIC values entry in assay [2] is “B+”.

In the case of `C#Cc1cnc(C2=CCN(C(=O)OC(C)(C)C)CC2)nc1Nc1cc(C2CC2)[nH]n1` [Compound 250, Tert-butyl 4-(4-(5-cyclopropyl-1H-pyrazol-3-ylamino)-5-ethynylpyrimidin-2-yl)-5,6-dihydropyridine-1(2H)-carboxylate], in assay [1], the inhibition constant (Ki) lay within 100 to 500 nM. For the same compound, the MIC values result in assay [2] is reported as “B+”.

Consider `CC(=O)c1ccc(-c2nccc(Nc3cc(C4CC4)[nH]n3)n2)cc1` [Compound 308, 1-[4-[4-[(5-cyclopropyl-1H-pyrazol-3-yl)amino]pyrimidin-2-yl]phenyl]ethanone], for which, in assay [1], the Ki is 10 to 50 nM. In addition, in assay [2], the MIC values result was “B+”.

As to `COC(=O)NCc1ccc(-c2ncc(Cl)c(Nc3cc(C4CC4)n[nH]3)n2)s1` [Compound 287, methyl [[5-[5-chloro-4-[(5-cyclopropyl-2H-pyrazol-3-yl)amino]-pyrimidin-2-yl]-2-thienyl]methylamino]formate], the Ki in assay [1] lay in the range of 10 to 50 nM. Moreover, the MIC values result in assay [2] was “B+”.

As for `Cc1cnc(-c2ccc(Cl)c(C(N)=O)c2)nc1Nc1cc(C2CC2)[nH]n1` [Compound 32, 2-chloro-5-[4-[(5-cyclopropyl-1H-pyrazol-3-yl)amino]-5-methyl-pyrimidin-2-yl]-benzamide], the Ki in assay [1] was 50 to 100 nM. In assay [2], the MIC values entry was “B+”.

As for `OC/C=C/c1cnc(-c2ccccc2)nc1Nc1cc(C2CC2)[nH]n1` [Compound 53, (E)-3-(4-(5-cyclopropyl-1H-pyrazol-3-ylamino)-2-phenylpyrimidin-5-yl)prop-2-en-1-ol], the “Ki Values” in assay [1] was “A, B**, B**”. For the same compound, in assay [2], the MIC values entry was “B+”.

As to `C#Cc1cnc(-c2ccc([C@@H](C)O)s2)nc1Nc1cc(C2CC2)n[nH]1` [Compound 212, (R)-1-(5-(4-(3-cyclopropyl-1H-pyrazol-5-ylamino)-5-ethynylpyrimidin-2-yl)thiophen-2-yl)ethanol], the “Ki Values” in assay [1] is recorded as “A**, A**, A*”. Further, in assay [2], the MIC values entry is recorded as “A, B++”.

In the case of `C#Cc1cnc(-c2ccccc2)nc1Nc1cc(C2CC2)[nH]n1` [Compound 14, N-(5-cyclopropyl-1H-pyrazol-3-yl)-5-ethynyl-2-phenylpyrimidin-4-amine], in assay [1], the “Ki Values” is on record as “A*, A”. The MIC values entry in assay [2] is “B+, B”.

Regarding `NS(=O)(=O)c1cccc(-c2ncc(CO)c(Nc3cc(C4CC4)n[nH]3)n2)c1` [Compound 124, 3-(4-(5-cyclopropyl-1H-pyrazol-3-ylamino)-5-(hydroxymethyl)pyrimidin-2-yl)benzenesulfonamide], the Ki in assay [1] lay in the range of 50 to 100 nM. Besides, in assay [2], the MIC values entry is on record as “A, B++”.

Consider `C#Cc1cnc(-c2ccc(S(=O)(=O)NC(C)(C)C)s2)nc1Nc1cc(C2CC2)n[nH]1` [Compound 115, N-tert-butyl-5-(4-(5-cyclopropyl-1H-pyrazol-3-ylamino)-5-ethynylpyrimidin-2-yl)thiophene-2-sulfonamide], for which the inhibition constant Ki in assay [1] lay within 10 to 50 nM. The MIC values entry in assay [2] is on record as “B++, B+”.

In general, Ki refers to the equilibrium dissociation constant of an inhibitor or competing ligand from its target.
